Results taken from ChEMBL document CHEMBL2010711, “Synthesis and comparative evaluation of 4-oxa- and 4-aza-podophyllotoxins as antiproliferative microtubule destabilizing agents” (Bioorg Med Chem Lett, 2012).
The source made the active and inactive calls.

Legend:
CCRF-CEM = assay: Cytotoxicity against human CCRF-CEM cells after 48 hrs by trypan blue dye exclusion assay; format: functional
HL-60(TB) = assay: Cytotoxicity against human HL-60(TB) cells after 48 hrs by trypan blue dye exclusion assay; format: functional; details: HL-60, 48 h
MOLT-4 = assay: Cytotoxicity against human MOLT4 cells after 48 hrs by trypan blue dye exclusion assay; format: functional; details: MOLT-4, 48 h
RPMI-8226 = assay: Cytotoxicity against human RPMI8226 cells after 48 hrs by trypan blue dye exclusion assay; format: functional; details: RPMI-8226, 48 h
SR = assay: Cytotoxicity against human SR cells after 48 hrs by trypan blue dye exclusion assay; format: functional
A549 = assay: Cytotoxicity against human A549 cells after 48 hrs by trypan blue dye exclusion assay; format: functional; details: A549, 48 h
EKVX = assay: Cytotoxicity against human EKVX cells after 48 hrs by trypan blue dye exclusion assay; format: functional
HOP-92 = assay: Cytotoxicity against human HOP92 cells after 48 hrs by trypan blue dye exclusion assay; format: functional; details: HOP-92, 48 h
NCI-H226 = assay: Cytotoxicity against human NCI-H226 cells after 48 hrs by trypan blue dye exclusion assay; format: functional; details: NCI-H226, 48 h
NCI-H23 = assay: Cytotoxicity against human NCI-H23 cells after 48 hrs by trypan blue dye exclusion assay; format: functional; details: NCI-H23, 48 h
NCI-H322M = assay: Cytotoxicity against human NCI-H322M cells after 48 hrs by trypan blue dye exclusion assay; format: functional
NCI-H460 = assay: Cytotoxicity against human NCI-H460 cells after 48 hrs by trypan blue dye exclusion assay; format: functional; details: NCI-H460, 48 h
NCI-H522 = assay: Cytotoxicity against human NCI-H522 cells after 48 hrs by trypan blue dye exclusion assay; format: functional; details: NCI-H522, 48 h
COLO 205 = assay: Cytotoxicity against human COLO205 cells after 48 hrs by trypan blue dye exclusion assay; format: functional; details: COLO 205, 48 h
HCC 2998 = assay: Cytotoxicity against human HCC2998 cells after 48 hrs by trypan blue dye exclusion assay; format: functional; details: HCC 2998, 48 h
HCT-116 = assay: Cytotoxicity against human HCT116 cells after 48 hrs by trypan blue dye exclusion assay; format: functional; details: HCT-116, 48 h
HCT-15 = assay: Cytotoxicity against human HCT15 cells after 48 hrs by trypan blue dye exclusion assay; format: functional; details: HCT-15, 48 h
HT-29 = assay: Cytotoxicity against human HT-29 cells after 48 hrs by trypan blue dye exclusion assay; format: functional; details: HT-29, 48 h
KM12 = assay: Cytotoxicity against human KM12 cells after 48 hrs by trypan blue dye exclusion assay; format: functional; details: KM12, 48 h
SW-620 = assay: Cytotoxicity against human SW620 cells after 48 hrs by trypan blue dye exclusion assay; format: functional; details: SW-620, 48 h
SF-268 = assay: Cytotoxicity against human SF268 cells after 48 hrs by trypan blue dye exclusion assay; format: functional; details: SF-268, 48 h
SF-295 = assay: Cytotoxicity against human SF295 cells after 48 hrs by trypan blue dye exclusion assay; format: functional; details: SF-295, 48 h
SF-539 = assay: Cytotoxicity against human SF539 cells after 48 hrs by trypan blue dye exclusion assay; format: functional; details: SF-539, 48 h
SNB-19 = assay: Cytotoxicity against human SNB19 cells after 48 hrs by trypan blue dye exclusion assay; format: functional; details: SNB-19, 48 h
SNB-75 = assay: Cytotoxicity against human SNB75 cells after 48 hrs by trypan blue dye exclusion assay; format: functional; details: SNB-75, 48 h
U-251 = assay: Cytotoxicity against human U251 cells after 48 hrs by trypan blue dye exclusion assay; format: functional; details: U-251, 48 h
LOX IMVI = assay: Cytotoxicity against human LOXIMVI cells after 48 hrs by trypan blue dye exclusion assay; format: functional
Malme-3M = assay: Cytotoxicity against human MALME-3M cells after 48 hrs by trypan blue dye exclusion assay; format: functional
M14 = assay: Cytotoxicity against human M14 cells after 48 hrs by trypan blue dye exclusion assay; format: functional; details: M14, 48 h
MDA-MB-435 = assay: Cytotoxicity against human MDA-MB-435 cells after 48 hrs by trypan blue dye exclusion assay; format: functional; details: MDA-MB-435, 48 h
SK-MEL-2 = assay: Cytotoxicity against human SK-MEL-2 cells after 48 hrs by trypan blue dye exclusion assay; format: functional; details: SK-MEL-2, 48 h
SK-MEL-28 = assay: Cytotoxicity against human SK-MEL-28 cells after 48 hrs by trypan blue dye exclusion assay; format: functional; details: SK-MEL-28, 48 h
SK-MEL-5 = assay: Cytotoxicity against human SK-MEL-5 cells after 48 hrs by trypan blue dye exclusion assay; format: functional; details: SK-MEL-5, 48 h
UACC-257 = assay: Cytotoxicity against human UACC257 cells after 48 hrs by trypan blue dye exclusion assay; format: functional; details: UACC-257, 48 h
UACC-62 = assay: Cytotoxicity against human UACC62 cells after 48 hrs by trypan blue dye exclusion assay; format: functional; details: UACC-62, 48 h
IGROV-1 = assay: Cytotoxicity against human IGROV1 cells after 48 hrs by trypan blue dye exclusion assay; format: functional; details: IGROV-1, 48 h
OVCAR-3 = assay: Cytotoxicity against human OVCAR3 cells after 48 hrs by trypan blue dye exclusion assay; format: functional; details: OVCAR-3, 48 h
OVCAR-4 = assay: Cytotoxicity against human OVCAR4 cells after 48 hrs by trypan blue dye exclusion assay; format: functional; details: OVCAR-4, 48 h
OVCAR-5 = assay: Cytotoxicity against human OVCAR5 cells after 48 hrs by trypan blue dye exclusion assay; format: functional; details: OVCAR-5, 48 h
OVCAR-8 = assay: Cytotoxicity against human OVCAR8 cells after 48 hrs by trypan blue dye exclusion assay; format: functional; details: OVCAR-8, 48 h
NCI/ADR-RES = assay: Cytotoxicity against human NCI/ADR-RES cells after 48 hrs by trypan blue dye exclusion assay; format: functional
SK-OV-3 = assay: Cytotoxicity against human SKOV3 cells after 48 hrs by trypan blue dye exclusion assay; format: functional; details: SK-OV-3, 48 h
786-0 = assay: Cytotoxicity against human 786-0 cells after 48 hrs by trypan blue dye exclusion assay; format: functional; details: 786-0, 48 h
A498 = assay: Cytotoxicity against human A498 cells after 48 hrs by trypan blue dye exclusion assay; format: functional; details: A498, 48 h
ACHN = assay: Cytotoxicity against human ACHN cells after 48 hrs by trypan blue dye exclusion assay; format: functional
CAKI-1 = assay: Cytotoxicity against human CAKI-1 cells after 48 hrs by trypan blue dye exclusion assay; format: functional; details: CAKI-1, 48 h
RXF 393 = assay: Cytotoxicity against human RXF393 cells after 48 hrs by trypan blue dye exclusion assay; format: functional; details: RXF 393, 48 h
SN12C = assay: Cytotoxicity against human SN12C cells after 48 hrs by trypan blue dye exclusion assay; format: functional
TK-10 = assay: Cytotoxicity against human TK10 cells after 48 hrs by trypan blue dye exclusion assay; format: functional; details: TK-10, 48 h
UO-31 = assay: Cytotoxicity against human UO31 cells after 48 hrs by trypan blue dye exclusion assay; format: functional; details: UO-31, 48 h
PC-3 = assay: Cytotoxicity against human PC3 cells after 48 hrs by trypan blue dye exclusion assay; format: functional; details: PC-3, 48 h
DU-145 = assay: Cytotoxicity against human DU145 cells after 48 hrs by trypan blue dye exclusion assay; format: functional; details: DU-145, 48 h
MCF7 = assay: Cytotoxicity against human MCF7 cells after 48 hrs by trypan blue dye exclusion assay; format: functional; details: MCF7, 48 h
MDA-MB-231 = assay: Cytotoxicity against human MDA-MB-231 cells after 48 hrs by trypan blue dye exclusion assay; format: functional; details: MDA-MB-231, 48 h
[1] = Cytotoxicity against human Hs 578T cells after 48 hrs by trypan blue dye exclusion assay; format: functional
BT-549 = assay: Cytotoxicity against human BT549 cells after 48 hrs by trypan blue dye exclusion assay; format: functional; details: BT-549, 48 h
T47D = assay: Cytotoxicity against human T47D cells after 48 hrs by trypan blue dye exclusion assay; format: functional
MDA-MB-468 = assay: Cytotoxicity against human MDA-MB-468 cells after 48 hrs by trypan blue dye exclusion assay; format: functional; details: MDA-MB-468, 48 h
Paracentrotus lividus [2] = assay: Antimitotic activity against Paracentrotus lividus embryo assessed as cleavage alteration at 2 fold less effective threshold concentration after 2.5 to 6 hrs; format: functional, organism-based
Paracentrotus lividus [3] = assay: Antimitotic activity against Paracentrotus lividus embryo assessed as cleavage arrest at 2 fold less effective threshold concentration after 2.5 to 6 hrs; format: functional, organism-based
Paracentrotus lividus [4] = assay: Microtubule destabilizing activity in Paracentrotus lividus embryo assessed as embryo spinning at 2 fold less effective threshold concentration after 15 mins to 20 hrs; format: functional, organism-based

SMILES: COc1ccc2c(c1)C(c1cc(OC)c3c(c1)OCO3)C1=C(COC1=O)N2 (stereo unspecified)
- GI50 (CCRF-CEM): 424 nM
- GI50 (HL-60(TB)): 287 nM
- GI50 (MOLT-4): 569 nM
- GI50 (RPMI-8226): 494 nM
- GI50 (SR): 324 nM
- GI50 (A549): 491 nM
- GI50 (EKVX): 982 nM
- GI50 (HOP-92): 425 nM
- GI50 (NCI-H226): 23300 nM
- GI50 (NCI-H23): 317 nM
- GI50 (NCI-H322M): 283 nM
- GI50 (NCI-H460): 19200 nM
- GI50 (NCI-H522): 348 nM
- GI50 (COLO 205): 268 nM
- GI50 (HCC 2998): 568 nM
- GI50 (HCT-116): 457 nM
- GI50 (HCT-15): 485 nM
- GI50 (HT-29): 326 nM
- GI50 (KM12): 254 nM
- GI50 (SW-620): 377 nM
- GI50 (SF-268): 805 nM
- GI50 (SF-295): 82.5 nM
- GI50 (SF-539): 359 nM
- GI50 (SNB-19): 518 nM
- GI50 (SNB-75): 48.7 nM
- GI50 (U-251): 805 nM
- GI50 (LOX IMVI): 702 nM
- GI50 (Malme-3M): > 100000 nM
- GI50 (M14): 247 nM
- GI50 (MDA-MB-435): 49 nM
- GI50 (SK-MEL-2): 429 nM
- GI50 (SK-MEL-28): 206 nM
- GI50 (SK-MEL-5): 269 nM
- GI50 (UACC-257): > 100000 nM
- GI50 (UACC-62): 88.1 nM
- GI50 (IGROV-1): 679 nM
- GI50 (OVCAR-3): 234 nM
- GI50 (OVCAR-4): 762 nM
- GI50 (OVCAR-5): 629 nM
- GI50 (OVCAR-8): 595 nM
- GI50 (NCI/ADR-RES): 289 nM
- GI50 (SK-OV-3): 318 nM
- GI50 (786-0): 594 nM
- GI50 (A498): 138 nM
- GI50 (ACHN): 1570 nM
- GI50 (CAKI-1): 709 nM
- GI50 (RXF 393): 130 nM
- GI50 (SN12C): 622 nM
- GI50 (TK-10): > 100000 nM
- GI50 (UO-31): 33100 nM
- GI50 (PC-3): 358 nM
- GI50 (DU-145): 399 nM
- GI50 (MCF7): 254 nM
- GI50 (MDA-MB-231): 698 nM
- GI50 [1]: 199 nM
- GI50 (BT-549): 1190 nM
- GI50 (T47D): 50500 nM
- GI50 (MDA-MB-468): 230 nM
- Activity (Paracentrotus lividus [2]): inactive
- Activity (Paracentrotus lividus [3]): inactive
- Activity (Paracentrotus lividus [4]): inactive
